According to patent US7192951B2, “Treatment of congestive heart failure” (Astellas Pharma Inc., priority 2000, dated 2007):
Counter-ions that a name gives are not always drawn.

Columns and labels:
[1] = tested on: AVP-induced pressor response (V1A antagonism); assay: Antagonism of AVP-induced pressor response in rats, oral; format: in vivo, rat
[2] = tested on: AVP-induced pressor response (V1A antagonism); assay: Antagonism of AVP-induced pressor response in dogs, intravenous; format: in vivo, dog
[3] = tested on: urinary output (V2 antagonism); assay: Urinary output and osmolality in conscious dogs, oral; format: in vivo, dog
[4] = tested on: heart failure induced by rapid right ventricular pacing; assay: Dogs with heart failure induced by rapid right ventricular pacing; format: in vivo, dog; conditions: intravenous 0.1 mg/kg
[5] = Oral pharmacokinetics in rats; format: in vivo; conditions: rat
Source text: (§1) There is a marked food effect with absorption reduced by >50% in dogs after a meal.

[6] = Oral pharmacokinetics in dogs; format: in vivo; conditions: dog
Source text: as §1

[7] = tested on: bone marrow; assay: 2- and 13-week oral toxicity studies in dogs; format: in vivo, dog
[8] = tested on: rats (fertility); assay: Reproductive performance and female fertility study in rats; format: in vivo, rat
[9] = tested on: rats; assay: Teratogenicity in rats; format: in vivo, rat
[10] = tested on: rabbits; assay: Teratogenicity in rabbits; format: in vivo, rabbit
[11] = tested on: bacteria; assay: Mutagenicity in bacteria; format: cell-based
[12] = tested on: human lymphocytes; assay: Clastogenicity in human lymphocytes in vitro; format: cell-based
[13] = tested on: bone marrow of rats; assay: Clastogenicity in bone marrow of rats; format: in vivo, rat
[14] = tested on: rats; conditions: rat, in vivo, 2.5 mg/kg
[15] = tested on: dogs; conditions: dog, in vivo, 2 mg/kg
[16] = tested on: AVP-induced platelet aggregation (V1A antagonist activity); assay: AVP-induced platelet aggregation in Phase 1 subjects; format: in vivo, human; conditions: 20 mg/day orally or 2.5 mg IV
[17] = tested on: AVP-induced dermal vasoconstriction; assay: AVP-induced dermal vasoconstriction in Phase 1 subjects; format: in vivo, human; conditions: 50 mg IV
[18] = tested on: aquaretic action (V2-receptor antagonism); assay: Aquaretic action in normal subjects (Phase 1); format: in vivo, human
[19] = tested on: human subjects; assay: Safety in Phase 1 subjects; format: in vivo
Source text: Other adverse events included flushes, a sensation of cold extremities, abdominal complaints, abnormal stools, syncope, dizziness, palpitations, and postural hypotension. […] These observations were considered related to antagonism of V2 receptors and not a safety concern. Vital signs (blood pressure and heart rate) were unaffected by YM087.

[20] = Human pharmacokinetics (Phase 1)
[21] = tested on: female rats (estrous cycle, uterine weights); conditions: 13-week repeated oral dose, all doses

Cc1nc2c([nH]1)-c1ccccc1N(C(=O)c1ccc(NC(=O)c3ccccc3-c3ccccc3)cc1)CC2 [YM087, N-[4-(2-methyl-4,5,6-tetrahydromidazo[4,5-d][1]benzazepin-6-ylcarbonyl)phenyl]biphenyl-2-carboxamide hydrochloride]
ID50 (dose that reduced the AVP response by 50%) [1]: 0.32 mg/kg | ID50 (dose that reduced the AVP response by 50%) [2]: 0.026 mg/kg | urinary output ([3]; conscious dogs, oral 0.03 to 0.3 mg/kg, dose-related): increased urinary output | urinary osmolality ([3]; conscious dogs, oral 0.03 to 0.3 mg/kg, reduced from 1500, dose-related): < 100 mOsm/kg H2O | effect on urinary sodium (Na) or potassium (K) excretion ([3]; unlike furosemide, species not given): little or no effect | cardiac function [4]: significantly improved the depressed cardiac function | diuresis [4]: produced a water diuresis | time to peak concentrations [5]: 0.5 h | time to peak concentrations [6]: 1 h | peripheral blood counts ([7]; affected dogs, 13-week oral study): Decreased peripheral erythrocyte, leukocyte, and/or platelet counts | reversibility of bone marrow and peripheral blood changes ([7]; dogs): reversible | female fertility ([8]; female rats, 100 mg/kg orally for 2 weeks prior to mating with untreated males): reduced fertility index, increased implantation loss, and decreased live fetuses | reproductive performance of male rats ([8]; male rats): did not affect | teratogenicity [9]: not teratogenic | teratogenicity [10]: not teratogenic | mutagenicity [11]: not mutagenic | clastogenicity [12]: not clastogenic | clastogenicity [13]: not clastogenic | toxicity in 4-week IV study [14]: No toxicity was observed | toxicity in 4-week IV study [15]: No toxicity was observed | AVP-induced platelet aggregation [16]: Inhibition of AVP-induced platelet aggregation | AVP-induced dermal vasoconstriction [17]: Total inhibition | duration of increased urine production rate postdosing ([18]; IV 50 mg/day): ≤ 6 h | duration of increased urine production rate postdosing ([18]; IV doses up to 250 μg/kg): up to 3 hours | tolerability of aquaretic effects ([18]; normal subjects, 120 mg QD or 60 mg BID orally or 50 mg IV): considered too uncomfortable in normal subjects to be tolerable | dose at which aquaretic action with decrease in urine osmolarity starts ([18]; normal subjects, IV): 0.05 mg/kg | dose at which aquaretic action with decrease in urine osmolarity starts ([18]; normal subjects, oral): 15 mg | biochemical or hematological laboratory parameters ([19]; Phase 1 subjects): No drug-related trend was observed | vital signs (blood pressure and heart rate) ([19]; Phase 1 subjects): unaffected | overall safety ([19]; approximately 250 subjects treated): no major safety concerns were identified | urinary and plasma osmolarity ([19]; at higher doses, considered related to V2 antagonism): urinary osmolarity decreased and plasma osmolarity increased with or without an increase in plasma sodium | serious adverse event ([19]; one patient with severe CHF, 80 mg/day for 4 days, relation to study drug could not be excluded): generalized tonic clonic seizure | most frequent adverse events ([19]; regardless of treatment association): mild or moderate thirst and mild headache | white blood cell counts ([19]; three subjects who received YM087 (one on placebo)): minor, reversible decreases in white blood cell counts | plasma levels after repeated BID oral doses ([20]; 60 mg BID oral, after the second dose): unexpectedly high plasma levels after the second dose | half-life ([20]; plasma): 4 to 5 h | bioavailability ([20]; plasma, oral): 43 to 59% | Tmax ([20]; plasma, po): ~1 h | bioavailability ([20]; plasma, po, 60 mg): 44% | uterine weights [21]: decreased at all doses
